Data published in patent US20260159474A1, “Aminoindane Compounds and Compositions and Methods of Their Therapeutic Use” (Solvonis Therapeutics Ireland Holdings Limited, priority 2021, published 2026).
Where two headings read alike, the source gives them in different places.

Experiments:
[1] = test system: DA release in rat synaptosomes; assay: Dopamine release assay in rat striatal synaptosomes; type: biochemical; conditions: % of maximal release with 50 μM MDMA, n=2
Protocol: Methods-Evaluation of Monoamine Release: The potency of therapeutic compounds for stimulating DA release was measured by an endpoint release filtration assay in a 96-well format using rat synaptosomes, essentially as described by Sandtner et al. (Mol Pharmacol., 2016; 89(1):165-75.) and Baumann et al. (Neuropsychopharmacol, 2013; 38:552-562.) with some variations. One male rat was euthanized, and striatum/cortex regions were dissected over ice. The striatum portions were weighed and put in a glass tube containing ice-cold 0.32 M sucrose (dilution 1:24 w/v) for homogenization, while the frontal cortex tissue was diluted in ice-cold 0.32 M sucrose, 1:20 w/v. Tissues were homogenized and centrifuged for 10 mins at 1000×g. The two supernatants from striatum and cortex (crude synaptosomes) were retained on ice until use.
Test compounds were then serially diluted 1:4 in neat DMSO as concentration-response curves (CRC) of 11 points. To each well of a 2-mL 96 deep-well plate (Whatman UNIPLATE 96 well) were added: 2 μL of a concentration-response curve (CRC) of test compounds or 2 μL of DMSO (no-release condition) or 2 μL of MDMA 10 mM solution (final 50 μM, for maximal release), followed by 200 μL/well of complete Krebs-phosphate buffer (126 mM NaCl, 2.4 mM KCl, 0.83 mM CaCl2), 0.8 mM MgCl2, 0.5 mM KH2PO4, 0.5 mM Na2SO4, 11.1 mM glucose, 0.05 mM pargyline, 1 mg/mL ascorbic acid, freshly added, pH 7.4), containing 1 μM reserpine to block vesicular uptake of substrate. Desipramine (100 nM) and citalopram (100 nM) were also added to the release assay buffer in order to inhibit NET and SERT uptake, respectively. The final compound dilution, then, was 1:200 in 0.5% DMSO.
3H-Dopamine was added to the tube containing the crude striatal synaptosomes preparation, diluted 1:20 (v/v) in complete Krebs-phosphate buffer, and was incubated at RT and gently mixed for 60 minutes. Then, 200 μL/well of 3H-DA loaded synaptosomes were dispensed to the compound plate (final 400 μL/well), and the release reaction proceeded for an additional 15 minutes at RT. The release was terminated by vacuum filtration and washing three times with 1 mL of saline solution (NaCl 0.9%) at RT. The retained radioactivity was counted in a scintillation counter after the addition of 50 μL/well Microscint-20.
The raw data (cpm) from residual radioactivity onto the filter were elaborated for the determination of pEC50/EC50 values. Specifically, the compound effect was expressed as the percent of maximal release obtained with 50 μM MDMA (100% release) in comparison to vehicle (0.5% DMSO, 0% release). Both MDMA and D-amphetamine in CRC were used as internal controls in each release experiment. In each plate, for both 0% and 100% of release, the signal window was monitored and Z′ calculations were determined using the raw data of four replicates. 5-HT release was calculated in an identical fashion, except that 5 nM 3H-serotonin was added to crude cortex synaptosomes preparation diluted 1:13 (v/v) in complete Krebs-phosphate buffer containing 1 μM Reserpine, 100 nM GBR12909 and 100 nM nomifensine to block vesicular, DAT, and NET uptake, respectively. Synaptosomes were then loaded with 3H-5HT for 60 minutes at RT. After dispensing loaded synaptosomes onto a compound plate (200 μL/well), the release reaction proceeded for an additional 15 minutes. Stop by filtration, counting, and data elaboration were performed as described for DA release. Compounds were tested in duplicate (n=2).

hSERT = target: T1, hSERT (Homo sapiens, UniProt P31645); assay: SERT uptake SPA in hSERT-CHO cells; type: cell-based; conditions: for SERT/DAT Uptake Ratio: calculated as 1/SERT IC50:1/DAT IC50
T1 construct: expressed in transfected cells; host or cells: CHO (hSERT-CHO)
T1 sequence (P31645 whole entry): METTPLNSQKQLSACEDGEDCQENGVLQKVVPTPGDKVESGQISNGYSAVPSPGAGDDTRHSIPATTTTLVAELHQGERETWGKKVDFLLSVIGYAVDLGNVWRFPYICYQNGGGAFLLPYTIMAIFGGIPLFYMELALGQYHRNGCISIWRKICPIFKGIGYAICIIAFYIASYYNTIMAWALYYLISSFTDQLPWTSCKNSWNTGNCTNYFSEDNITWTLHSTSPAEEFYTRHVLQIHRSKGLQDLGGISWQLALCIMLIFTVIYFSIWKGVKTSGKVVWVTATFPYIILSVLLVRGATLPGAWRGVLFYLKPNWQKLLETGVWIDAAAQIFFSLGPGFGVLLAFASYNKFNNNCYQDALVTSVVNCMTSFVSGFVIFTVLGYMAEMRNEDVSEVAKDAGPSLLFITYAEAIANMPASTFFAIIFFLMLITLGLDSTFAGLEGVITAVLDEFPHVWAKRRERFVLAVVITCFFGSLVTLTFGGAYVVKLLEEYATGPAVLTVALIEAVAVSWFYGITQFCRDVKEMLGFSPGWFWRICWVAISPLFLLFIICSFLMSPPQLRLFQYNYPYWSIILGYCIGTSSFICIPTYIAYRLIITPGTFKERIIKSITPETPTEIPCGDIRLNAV
Protocol: Briefly, on experiment days, hDAT-CHO cells were detached using Versene and added at a density of approximately 300,000 cells/mL to the SPA Mixture, which contains the following components in Assay Buffer (20 mM HEPES, 145 mM NaCl, 5 mM KCl, 2 mM CaCl2), 1 mM MgCl2, 5.5 mM glucose, 0.01% Pluronic F127, pH 7.3): 0.75 mg/mL SPA Imaging beads (RPNQ0001, PerkinElmer), 10 μM pargyline and 80 nM of [3H]-dopamine (NET673, PerkinEImer). The SPA Mixture was added 20 μL/well to 384 well plates containing 0.1 μL/well of test compound in neat DMSO (11 points of 1:5 serial dilution, 0.5% DMSO final) or 0.1 μL of DMSO (total uptake) or 0.1 μL of the standard inhibitor indatraline (at 1 μM final concentration, as nonspecific uptake). Plates were sealed with a Top-seal A and read using a Microbeta counter (PerkinElmer) after 45 minutes of incubation at room temperature. […] The SPA Mixture was added 20 μL/well to 384 well plates containing 0.1 μL/well of test compound in neat DMSO (11 points of 1:5 serial dilution, 0.5% DMSO final), 0.1 μL of DMSO (total uptake), or 0.1 μL of the standard inhibitor indatraline (1 μM, nonspecific uptake). Plates were sealed with a Top-seal A and read using a Microbeta counter (PerkinElmer) after 120 minutes of incubation at room temperature.
For both tests, the raw experimental data (cpm) were elaborated for the determination of pIC50/IC50 values as % inhibition of specific uptake. Concentration-response curves of MDMA, MDDMA, citalopram and GBR-12909 were used as internal standards in all experiments, and the signal window was monitored in each plate performing Z′ calculations, as described in Zhang et al., J Biomol Screen.

[2] = [3H]-serotonin uptake, hSERT-CHO cells, read-out: SERT Uptake SPA (pIC50) (converted)

Compound | DA Release (pEC50) [1] | IC50 (hSERT; [2]) | SERT/DAT Uptake Ratio (hSERT) | SERT Uptake SPA (pIC50) (hSERT; [3H]-serotonin uptake, hSERT-CHO cells) | IC50 (hSERT)
COC(=O)c1cc2c(cc1OC)CC(N)C2 (centres unmarked) [CMP-401] | <4.0 | 3.98 µM | 22 |  | 
COC(=O)COc1ccc2c(c1)CC(N)C2 (centres unmarked) [CMP-402] | <4.0 | 63.1 µM | 1.4 |  | 
COC(=O)c1ccc2c(c1)CC(N)C2 (centres unmarked) [CMP-405, 2-aminoindane-5-methylcarboxylate] | 5.6 | 7.94 µM |  |  | 
CNC(C)Cc1ccc2c(c1)OCO2 (centres unmarked) [MDMA] | 6.6 |  | 2.1 | 6.0 | 
COc1ccc2c(c1)CC(N)C2 (centres unmarked) [MEAI, 5-methoxy-2-aminoindane] | 5.4 |  | 9 |  | 3.98 µM
COc1cc2c(cc1C)CC(N)C2 (centres unmarked) [MMAI, 5-methoxy-6-methyl-2-aminoindane] | 4.6 |  | 52 |  | 1 µM
